In patent US9624229B2, “Pyrimidine-2-amine compounds and their use as inhibitors of JAK kinases” (Rigel Pharmaceuticals, Inc., priority 2008, dated 2017):
Where two headings read alike, the source gives them in different places.

Target: Ba/F3 V617F cells (Homo sapiens, UniProt O60674, V617F, cells depend on it)
Assay: Proliferation assay (Cell Titer-Glo, 72 h) utilizing Ba/F3 V617F cells
Format: cell-based, mouse
Conditions: read-out: IC50 (the source's name)
Procedure, shortened: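 Ba/F3 V617F cells in RPMI/10% FBS, 1×10^5 cells/mL, exposed in duplicate to 3-fold serial compound dilutions (top 5 mM DMSO stock, diluted 1:250, added as 2× solution in 5% FBS medium) for 72 h at 37 °C. Viability by Cell Titer-Glo luminescence; IC50 reported.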

[1] = Ba/F3 V617F cells, proliferation, level of activity given as class symbol

Sequence of Ba/F3 V617F cells (O60674 whole entry V617F): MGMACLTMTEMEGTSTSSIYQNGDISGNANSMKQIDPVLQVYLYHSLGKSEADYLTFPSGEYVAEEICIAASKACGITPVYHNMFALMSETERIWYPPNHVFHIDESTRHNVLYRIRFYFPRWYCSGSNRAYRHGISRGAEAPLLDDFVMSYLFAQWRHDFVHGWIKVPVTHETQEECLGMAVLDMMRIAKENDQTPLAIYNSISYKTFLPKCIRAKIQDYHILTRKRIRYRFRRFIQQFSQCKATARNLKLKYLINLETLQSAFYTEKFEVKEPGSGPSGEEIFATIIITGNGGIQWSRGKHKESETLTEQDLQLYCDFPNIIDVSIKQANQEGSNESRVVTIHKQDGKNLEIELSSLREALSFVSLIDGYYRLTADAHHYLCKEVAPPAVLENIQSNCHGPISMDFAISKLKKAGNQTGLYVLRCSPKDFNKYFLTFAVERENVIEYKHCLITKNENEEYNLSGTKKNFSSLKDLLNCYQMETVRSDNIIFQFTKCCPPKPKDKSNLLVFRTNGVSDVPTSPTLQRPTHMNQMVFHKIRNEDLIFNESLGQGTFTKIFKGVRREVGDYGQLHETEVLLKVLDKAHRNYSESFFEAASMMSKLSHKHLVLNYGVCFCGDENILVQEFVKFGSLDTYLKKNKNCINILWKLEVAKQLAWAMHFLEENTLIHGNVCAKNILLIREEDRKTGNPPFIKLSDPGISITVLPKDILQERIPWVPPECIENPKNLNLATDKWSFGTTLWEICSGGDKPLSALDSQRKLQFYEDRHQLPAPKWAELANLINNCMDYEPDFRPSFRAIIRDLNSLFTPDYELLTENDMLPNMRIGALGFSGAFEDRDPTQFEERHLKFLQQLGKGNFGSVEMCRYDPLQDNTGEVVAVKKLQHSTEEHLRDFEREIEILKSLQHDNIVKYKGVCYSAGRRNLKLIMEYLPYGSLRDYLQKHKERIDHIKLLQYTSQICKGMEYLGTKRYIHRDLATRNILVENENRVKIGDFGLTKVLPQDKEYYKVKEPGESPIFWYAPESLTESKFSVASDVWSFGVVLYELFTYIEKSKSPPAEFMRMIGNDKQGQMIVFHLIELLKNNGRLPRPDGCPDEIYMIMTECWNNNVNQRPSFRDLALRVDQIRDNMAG

SMILES: CS(=O)(=O)N1CC2CC(c3ccc(Nc4nccc(-c5ccc(N6CCOCC6)nc5)n4)cc3)C1C2 (centres unmarked) [compound 229, 4-(6-(morpholin-4-yl)pyridin-3-yl)-N-(4-(2-methylsulfonyl-2-azabicyclo[2.2.1]heptan-6-yl)phenyl)pyrimidin-2-amine]
- GI50 [1]: 1000 to 10000 nM

SMILES: Cc1cc(Nc2nccc(-c3ccc(N4CCSCC4)nc3)n2)ccc1N1C[C@@H]2C[C@H]1CN2C [compound 230, 4-(6-(thiamorpholin-4-yl)pyridin-3-yl)-N-(3-methyl-4-((1S,4S)-5-methyl-2,5-diazabicyclo[2.2.1]heptan-2-yl)phenyl)pyrimidin-2-amine]
- GI50 [1]: < 1000 nM

SMILES: Cc1cc(Nc2nccc(-c3ccc(N4CCOCC4)nc3)n2)ccc1N1C[C@@H]2C[C@H]1CN2C [compound 231, 4-(6-(morpholin-4-yl)pyridin-3-yl)-N-(3-methyl-4-((1S,4S)-5-methyl-2,5-diazabicyclo[2.2.1]heptan-2-yl)phenyl)pyrimidin-2-amine]
- GI50 [1]: < 1000 nM

SMILES: Cc1cc(Nc2nccc(-c3ccc4c(ccn4-c4ccncc4)c3)n2)ccc1N1C[C@@H]2C[C@H]1CN2C [compound 232, 4-(1-(pyridin-4-yl)-1H-indol-5-yl)-N-(3-methyl-4-((1S,4S)-5-methyl-2,5-diazabicyclo[2.2.1]heptan-2-yl)phenyl)pyrimidin-2-amine]
- GI50 [1]: < 1000 nM

SMILES: CN1C[C@@H]2C[C@H]1CN2c1ccc(Nc2nccc(-c3ccc4c(ccn4-c4ccncc4)c3)n2)cc1F [compound 233, 4-(1-(pyridin-4-yl)-1H-indol-5-yl)-N-(3-fluoro-4-((1S,4S)-5-methyl-2,5-diazabicyclo[2.2.1]heptan-2-yl)phenyl)pyrimidin-2-amine]
- GI50 [1]: < 1000 nM

SMILES: CCN1C[C@@H]2C[C@H]1CN2c1ccc(Nc2nccc(-c3ccc4c(ccn4-c4ccncc4)c3)n2)cc1C [compound 234, 4-(1-(pyridin-4-yl)-1H-indol-5-yl)-N-(3-methyl-4-((1S,4S)-5-ethyl-2,5-diazabicyclo[2.2.1]heptan-2-yl)phenyl)pyrimidin-2-amine]
- GI50 [1]: < 1000 nM

SMILES: Cc1cc(Nc2nccc(-c3ccc4c(ccn4-c4ccncc4)c3)n2)ccc1N1C[C@@H]2C[C@H]1CN2CC(C)C [compound 235, 4-(1-(pyridin-4-yl)-1H-indol-5-yl)-N-(3-methyl-4-((1S,4S)-5-isobutyl-2,5-diazabicyclo[2.2.1]heptan-2-yl)phenyl)pyrimidin-2-amine]
- GI50 [1]: < 1000 nM

SMILES: Cc1cc(Nc2nccc(-c3ccc4c(ccn4-c4ccncc4)c3)n2)cnc1N1C[C@@H]2C[C@H]1CN2C [compound 236, 4-(1-(pyridin-4-yl)-1H-indol-5-yl)-N-(5-methyl-6-((1S,4S)-5-methyl-2,5-diazabicyclo[2.2.1]heptan-2-yl)pyridin-3-yl)pyrimidin-2-amine]
- GI50 (inhibition of JAK2 activity, proliferation of Ba/F3 V617F cells): < 1000 nM

SMILES: Cc1cc(Nc2nccc(-c3cnc4c(c3)CCC(=O)N4)n2)ccc1N1C[C@@H]2C[C@H]1CN2S(C)(=O)=O [compound 237, 4-(7-oxo-5,6,7,8-tetrahydro-1,8-naphthyridin-3-yl)-N-(3-methyl-4-((1S,4S)-5-methylsulfonyl-2,5-diazabicyclo[2.2.1]heptan-2-yl)phenyl)pyrimidin-2-amine]
- GI50 [1]: < 1000 nM

SMILES: CCCNc1ccc(-c2ccnc(Nc3ccc(N4C[C@@H]5C[C@H]4CN5S(C)(=O)=O)c(C)c3)n2)cn1 [compound 238, 4-(6-(propylamino)pyridin-3-yl)-N-(3-methyl-4-((1S,4S)-5-methylsulfonyl-2,5-diazabicyclo[2.2.1]heptan-2-yl)phenyl)pyrimidin-2-amine]
- GI50 [1]: < 1000 nM

SMILES: CN1C[C@@H]2C[C@H]1CN2c1ccc(Nc2nccc(-c3ccc4c(c3)SCC(=O)N4)n2)cc1 [compound 239, 4-(3-oxo-3,4-dihydro-2H-benzo[b][1,4]thiazin-7-yl)-N-(4-((1S,4S)-5-methyl-2,5-diazabicyclo[2.2.1]heptan-2-yl)phenyl)pyrimidin-2-amine]
- GI50 [1]: < 1000 nM

SMILES: Cc1cc(Nc2nccc(-c3ccc4c(c3)OC(C)(C)C(=O)N4)n2)ccc1N1C[C@@H]2C[C@H]1CN2C [compound 240, 4-(2,2-dimethyl-3-oxo-3,4-dihydro-2H-benzo[b][1,4]oxazin-7-yl)-N-(3-methyl-4-((1S,4S)-5-methyl-2,5-diazabicyclo[2.2.1]heptan-2-yl)phenyl)pyrimidin-2-amine]
- GI50 [1]: < 1000 nM

SMILES: Cc1cc(Nc2nccc(-c3ccc4c(c3)OC(C)(C)C(=O)N4)n2)ccc1N1C[C@@H]2C[C@H]1CN2S(C)(=O)=O [compound 241, 4-(2,2-dimethyl-3-oxo-3,4-dihydro-2H-benzo[b][1,4]oxazin-7-yl)-N-(3-methyl-4-((1S,4S)-5-methylsulfonyl-2,5-diazabicyclo[2.2.1]heptan-2-yl)phenyl)pyrimidin-2-amine]
- GI50 [1]: < 1000 nM

SMILES: Cc1cc(Nc2nccc(-c3ccc4c(c3)CCCC(=O)N4)n2)ccc1N1C[C@@H]2C[C@H]1CN2C [compound 242, 4-(2-oxo-2,3,4,5-tetrahydro-1H-benzo[b]azepin-7-yl)-N-(3-methyl-4-((1S,4S)-5-methyl-2,5-diazabicyclo[2.2.1]heptan-2-yl)phenyl)pyrimidin-2-amine]
- GI50 [1]: < 1000 nM

SMILES: Cc1cc(Nc2nccc(-c3ccc4c(c3)CCCC(=O)N4)n2)ccc1N1C[C@@H]2C[C@H]1CN2S(C)(=O)=O [compound 243, 4-(2-oxo-2,3,4,5-tetrahydro-1H-benzo[b]azepin-7-yl)-N-(3-methyl-4-((1S,4S)-5-methylsulfonyl-2,5-diazabicyclo[2.2.1]heptan-2-yl)phenyl)pyrimidin-2-amine]
- GI50 [1]: < 1000 nM

SMILES: Cc1cc(Nc2nccc(-c3ccc4c(c3)OC(C)(C)C(=O)N4)n2)ccc1N1CCN2C(C1)[C@H]1CC[C@@H]2C1 (stereo partly drawn) [compound 244, 4-(2,2-dimethyl-3-oxo-3,4-dihydro-2H-benzo[b][1,4]oxazin-7-yl)-N-(3-methyl-4-((6R,9S)-6,9-methanooctahydro-1H-pyrido[1,2-a]pyrazin-2-yl)phenyl)pyrimidin-2-amine]
- GI50 [1]: < 1000 nM

SMILES: Cc1cc(Nc2nccc(-c3ccc(N4CCOCC4)nc3)n2)ccc1N1CCN2C(C1)[C@H]1CC[C@@H]2C1 (stereo partly drawn) [compound 245, 4-(6-(morpholin-4-yl)pyridin-3-yl)-N-(3-methyl-4-((6R,9S)-6,9-methanooctahydro-1H-pyrido[1,2-a]pyrazin-2-yl)phenyl)pyrimidin-2-amine]
- GI50 [1]: < 1000 nM

SMILES: Cc1cc(Nc2nccc(-c3cnc4c(c3)OC(C)(C)C(=O)N4)n2)ccc1N1C[C@@H]2C[C@H]1CN2C(C)C [compound 246, 4-(2,2-dimethyl-3-oxo-3,4-dihydro-2H-pyrido[3,2-b][1,4]oxazin-7-yl)-N-(3-methyl-4-((1S,4S)-5-(1-methylethyl)-2,5-diazabicyclo[2.2.1]heptan-2-yl)phenyl)pyrimidin-2-amine]
- GI50 [1]: < 1000 nM

SMILES: Cc1cc(Nc2nccc(-c3cnc4c(c3)OC(C)(C)C(=O)N4)n2)ccc1N1C[C@@H]2C[C@H]1CN2C1CC1 [compound 247, 4-(2,2-dimethyl-3-oxo-3,4-dihydro-2H-pyrido[3,2-b][1,4]oxazin-7-yl)-N-(3-methyl-4-((1S,4S)-5-cyclopropyl-2,5-diazabicyclo[2.2.1]heptan-2-yl)phenyl)pyrimidin-2-amine]
- GI50 [1]: < 1000 nM

SMILES: CN1C[C@@H]2C[C@H]1CN2c1ccc(Nc2nccc(-c3cnc4c(c3)OC(C)(C)C(=O)N4)n2)cc1Cl [compound 248, 4-(2,2-dimethyl-3-oxo-3,4-dihydro-2H-pyrido[3,2-b][1,4]oxazin-7-yl)-N-(3-chloro-4-((1S,4S)-5-methyl-2,5-diazabicyclo[2.2.1]heptan-2-yl)phenyl)pyrimidin-2-amine]
- GI50 [1]: < 1000 nM

SMILES: CC1(C)Oc2cc(-c3ccnc(Nc4ccc(N5C[C@@H]6C[C@H]5CN6S(C)(=O)=O)c(Cl)c4)n3)cnc2NC1=O [compound 249, 4-(2,2-dimethyl-3-oxo-3,4-dihydro-2H-pyrido[3,2-b][1,4]oxazin-7-yl)-N-(3-chloro-4-((1S,4S)-5-(methylsulfonyl)-2,5-diazabicyclo[2.2.1]heptan-2-yl)phenyl)pyrimidin-2-amine]
- GI50 [1]: < 1000 nM

SMILES: Cc1cc(Nc2nccc(-c3cnc4c(c3)OC(C)(C)C(=O)N4)n2)ccc1N1C[C@@H]2C[C@H]1CN2C1CCCC1 [compound 250, 4-(2,2-dimethyl-3-oxo-3,4-dihydro-2H-pyrido[3,2-b][1,4]oxazin-7-yl)-N-(3-methyl-4-((1S,4S)-5-cyclopentyl-2,5-diazabicyclo[2.2.1]heptan-2-yl)phenyl)pyrimidin-2-amine]
- GI50 [1]: < 1000 nM

SMILES: CC(=O)N1C[C@@H]2C[C@H]1CN2c1ccc(Nc2nccc(-c3cnc4c(c3)OC(C)(C)C(=O)N4)n2)cc1C [compound 251, 4-(2,2-dimethyl-3-oxo-3,4-dihydro-2H-pyrido[3,2-b][1,4]oxazin-7-yl)-N-(3-methyl-4-((1S,4S)-5-acetyl-2,5-diazabicyclo[2.2.1]heptan-2-yl)phenyl)pyrimidin-2-amine]
- GI50 [1]: < 1000 nM

SMILES: Cc1cc(Nc2nccc(-c3cnc4c(c3)OC(C)(C)C(=O)N4)n2)ccc1N1CCN2CCC1C2 (centres unmarked) [compound 252, 4-(2,2-dimethyl-3-oxo-3,4-dihydro-2H-pyrido[3,2-b][1,4]oxazin-7-yl)-N-(3-methyl-4-(1,4-diazabicyclo[3.2.1]octan-4-yl)phenyl)pyrimidin-2-amine]
- GI50 [1]: < 1000 nM

SMILES: Cc1cc(Nc2nccc(-c3cnc(N)c(CCCC(=O)OC(C)C)c3)n2)ccc1N1C[C@@H]2C[C@H]1CN2C [compound 253, 4-(5-(1-methylethoxy)carbonylpropyl-6-aminopyridin-3-yl)-N-(3-methyl-4-((1S,4S)-5-methyl-2,5-diazabicyclo[2.2.1]heptan-2-yl)phenyl)pyrimidin-2-amine]
- GI50 [1]: < 1000 nM

SMILES: Cc1cc(Nc2nccc(-c3ccc(N4CCOCC4)nc3)n2)ccc1N1C[C@@H]2C[C@H]1CN2C1CC1 [compound 254, 4-(6-(morpholin-4-yl)pyridin-3-yl)-N-(3-methyl-4-((1S,4S)-5-cyclopropyl-2,5-diazabicyclo[2.2.1]heptan-2-yl)phenyl)pyrimidin-2-amine]
- GI50 [1]: < 1000 nM
